Assay results from patent US20170246228A1, “METHOD FOR SUPPRESSING PROLIFERATION AND/OR INDUCING APOPTOSIS OF CANCER CELLS” (Maruhachi Muramatsu, Inc., priority 2016, published 2017).

Test system: MDA-MB-231 cells
Assay: Cell proliferation of MDA-MB-231 cells with inhibitors that induce cell-cycle arrest, 3 days of culture
Assay type: cell-based, human
Conditions: absence of S. horneri active component, butyrate 10 and 100 μM, roscovitine 10 and 100 nM, sulforaphane 1 and 10 nM, FIG. 2(A)
Procedure: Cells were detached from each culture dishes using 0.2% trpysin plus 0.02% EDTA in Ca^2+/Mg^2+-free PBS for 2 min at 37° C., cells were collected after centrifugation. Cells were resuspended on PBS solution and stained with eosin. Cell numbers were counted under a microscope using a Hemocytometer plate. For each dish, we took the average of two countings.
Data are expressed as the mean±standard deviation (SD). Statistical significance was determined using GraphPad InStat version 3 for Windows XP (GraphPad Software Inc. La Jolla, Calif.). Multiple comparisons were performed by one-way analysis of variance (ANOVA) with Tukey-Kramer multiple comparisons post-test for parametric data as indicated. Data indicated P<0.05 was considered statistically significant.
Breast cancer MDA-MB-231 cells (1×10^5/ml per well) were cultured in a 24-well plate in DMEM containing 10% FBS and 1% P/S for 3 days in the presence or absence of S. horneri active component (50 μg/ml) with or without sodium butyrate (10 and 100 μM), roscovitine (10 and 100 nM) or sulforaphane (1 and 10 nM). Upon completion of culture, the cells were detached from wells, and the number of cells was counted and statistical processing was performed in accordance with the methods described in 2-1-2 and 2-1-3.

SMILES | proliferation of MDA-MB-231 cells in the presence of the inhibitor alone
CCCC(=O)[O-].[Na+] [butyrate, sodium butyrate] | suppressed
CC[C@H](CO)Nc1nc(NCc2ccccc2)c2ncn(C(C)C)c2n1 [roscovitine] | suppressed
C[S+]([O-])CCCCN=C=S (stereo not drawn) [sulforaphane] | suppressed
